Values of other authors as cited in US7858602B2, “Therapeutic and prophylactic uses of cell specific carbonic anhydrase enzymes in treating aging disorders due to oxidative stress and as growth factors of stem cells” (priority 2000, dated 2010).

B1: CA III: Carbonic anhydrase III isolated from adult human skeletal muscle (protein, UniProt P07451 2-260, looked up)
Carbonic anhydrase 3: AKEWGYASHNGPDHWHELFPNAKGENQSPVELHTKDIRHDPSLQPWSVSYDGGSAKTILNNGKTCRVVFDDTYDRSMLRGGPLPGPYRLRQFHLHWGSSDDHGSEHTVDGVKYAAELHLVHWNPKYNTFKEALKQRDGIAVIGIFLKIGHENGEFQIFLDALDKIKTKGKEAPFTKFDPSCLFPACRDYWTYQGSFTTPPCEECIVWLLLKEPMTVSSDQMAKLRSLLSSAENEPPVPLVSNWRPPQPINNRVVRASFK

Columns and labels:
[1] = system: human synovial cells and synovial tissue cultures
[2] = system: carbonic anhydrase VI (CA-VI); details: orally administered, patients with CA-VI deficiency
[3] = system: CA; details: in vitro and in vivo
[4] = system: gastric acid output
[5] = system: sympathetic nerve terminals
[6] = system: muscle fibroblast; details: exposure to CA III
[7] = system: synovial connective tissue fibroblast

Row | Molecule | Prostaglandin PGE2 production [1] | hyaluronic acid production [1] | nitric oxide production [1] | effect on CA [3] | also measured
1 | CNCCC(Oc1ccc(C(F)(F)F)cc1)c1ccccc1 (stereo not drawn) [Fluoxetine] | inhibit | inhibit | inhibit |  | 
2 | [Zn] [Zinc] |  |  |  |  | stimulation of synthesis/secretion of CA-VI, treatment result [2]: successful
3 | CN(C)CCC=C1c2ccccc2CCc2ccccc21 [aminitriptylline] | inhibit | inhibit | inhibit |  | 
4 | CCCCC[C@H](O)/C=C/[C@H]1[C@H](O)CC(=O)[C@@H]1CCCCCCC(=O)O [prostaglandin E1] |  |  |  | inhibit | 
5 | CCCCC[C@H](O)/C=C/[C@H]1[C@H](O)CC(=O)[C@@H]1C/C=C\CCCC(=O)O [prostaglandin E2, Prostaglandin E2] |  |  |  | inhibit | gastric acid output [4]: inhibit; egress of norepinephrine from sympathetic nerve terminals [5]: inhibits
6 | B1 |  |  |  |  | increase in muscle fibroblast [6]: 20-45%; increase of synovial connective tissue fibroblast on exposure to CA III ([7]; cell culture): 2 to 12 fold; hyaluronic acid synthesis ([7]; cell culture, exposure to CA III): increased; increase in synovial fibroblasts ([7]; exposure to CA III): 16-70%
